Laboratory results from publication PMC8708751, “Hit Identification of a Novel Quinazoline Sulfonamide as a Promising EphB3 Inhibitor: Design, Virtual Combinatorial Library, Synthesis, Biological Evaluation, and Docking Simulation Studies” (Pharmaceuticals, 2021).
Read-outs that look alike come from different tables or passages of the source.

Legend:
EGFR kinase = target: T1, EGFR kinase (Homo sapiens, UniProt P00533); assay: EGFR kinase inhibition assay (HotSpot); assay type: biochemical
T1 construct: purchased Reaction Biology Co. (Kinase HotSpot service)
T1 sequence (P00533 25-1210): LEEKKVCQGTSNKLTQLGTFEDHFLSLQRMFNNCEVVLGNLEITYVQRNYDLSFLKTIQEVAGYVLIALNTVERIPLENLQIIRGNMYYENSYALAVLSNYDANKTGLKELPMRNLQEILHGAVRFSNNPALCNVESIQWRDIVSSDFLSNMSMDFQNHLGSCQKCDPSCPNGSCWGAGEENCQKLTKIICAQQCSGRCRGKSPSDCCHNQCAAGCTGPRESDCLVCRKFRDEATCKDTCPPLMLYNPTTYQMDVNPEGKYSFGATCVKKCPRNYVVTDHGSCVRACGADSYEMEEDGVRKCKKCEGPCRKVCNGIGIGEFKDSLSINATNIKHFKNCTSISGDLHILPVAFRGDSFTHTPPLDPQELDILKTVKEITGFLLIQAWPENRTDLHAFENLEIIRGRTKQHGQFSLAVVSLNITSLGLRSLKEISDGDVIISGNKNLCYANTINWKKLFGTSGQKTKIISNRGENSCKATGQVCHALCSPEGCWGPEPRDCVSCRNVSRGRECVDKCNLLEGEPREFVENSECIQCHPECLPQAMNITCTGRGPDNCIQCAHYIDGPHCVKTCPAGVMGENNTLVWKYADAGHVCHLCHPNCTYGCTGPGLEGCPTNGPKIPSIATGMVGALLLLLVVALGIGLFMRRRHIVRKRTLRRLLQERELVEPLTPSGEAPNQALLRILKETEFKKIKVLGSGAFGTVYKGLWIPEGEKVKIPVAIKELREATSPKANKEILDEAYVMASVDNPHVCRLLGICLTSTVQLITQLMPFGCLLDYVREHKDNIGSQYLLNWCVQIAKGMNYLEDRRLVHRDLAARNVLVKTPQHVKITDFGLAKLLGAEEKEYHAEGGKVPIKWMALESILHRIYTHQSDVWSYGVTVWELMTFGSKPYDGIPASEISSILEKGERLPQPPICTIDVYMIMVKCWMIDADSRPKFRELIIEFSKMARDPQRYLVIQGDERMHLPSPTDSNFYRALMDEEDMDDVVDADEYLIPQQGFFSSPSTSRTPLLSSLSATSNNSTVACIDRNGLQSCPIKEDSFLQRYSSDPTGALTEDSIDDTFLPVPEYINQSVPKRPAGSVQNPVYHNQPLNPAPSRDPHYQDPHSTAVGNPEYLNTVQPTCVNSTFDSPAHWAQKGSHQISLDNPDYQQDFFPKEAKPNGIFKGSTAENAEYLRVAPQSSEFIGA

Aurora A = target: T2, Aurora A (Homo sapiens, UniProt O14965); assay: Kinase panel assay, Aurora A; assay type: biochemical; settings: read-out: Average % Enzyme Inhibition (Relative to DMSO Controls) at 10 µM
T2 construct: purchased Reaction Biology Co. (Kinase HotSpot service)
T2 sequence (O14965 1-403): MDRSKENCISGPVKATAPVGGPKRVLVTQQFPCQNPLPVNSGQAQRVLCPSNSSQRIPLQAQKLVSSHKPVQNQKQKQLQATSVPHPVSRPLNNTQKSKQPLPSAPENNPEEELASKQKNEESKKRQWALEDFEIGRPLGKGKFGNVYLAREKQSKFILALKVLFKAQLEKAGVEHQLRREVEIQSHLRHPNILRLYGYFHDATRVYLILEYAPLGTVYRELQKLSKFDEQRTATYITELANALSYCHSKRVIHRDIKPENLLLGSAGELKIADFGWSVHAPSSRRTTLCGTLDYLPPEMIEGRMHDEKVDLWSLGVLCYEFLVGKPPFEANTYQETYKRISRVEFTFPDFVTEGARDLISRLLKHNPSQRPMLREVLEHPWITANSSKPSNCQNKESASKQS
Description: (§1) The screening of the tested compounds was performed using the Kinase HotSpot^SM service from Reaction Biology Co. (http://www.reactionbiology.com, accessed on 25 September 2021). The HotSpot assay platform contains specific kinase/substrate pairs along with required cofactors. Base reaction buffer: 20 mM Hepes (pH 7.5), 10 mM MgCl2, 1 mM EGTA, 0.02% Brij35, 0.02 mg/mL BSA, 0.1 mM Na3VO4, 2 mM DTT, 1% DMSO. The tested compounds were dissolved in 100% DMSO to specific concentration. The serial dilution was conducted by Integra Viaflo Assist in DMSO (Sigma-Aldrich, Burlington, MA, USA). The reaction mixture containing the examined compound and 33P-ATP was incubated at room temperature for 2 h, and radioactivity was detected by filter-binding method. Kinase activity data were expressed as the percent remaining kinase activity in test samples compared to vehicle (dimethyl sulfoxide) reactions. IC50 values and curve fits were obtained using Prism (GraphPad Software, San Diego, CA, USA).

EphB2 = target: T3, EphB2 (Homo sapiens, UniProt P29323); assay: Kinase panel assay, EphB2; assay type: biochemical
T3 construct: purchased Reaction Biology Co. (Kinase HotSpot service)
T3 sequence (P29323 19-1055): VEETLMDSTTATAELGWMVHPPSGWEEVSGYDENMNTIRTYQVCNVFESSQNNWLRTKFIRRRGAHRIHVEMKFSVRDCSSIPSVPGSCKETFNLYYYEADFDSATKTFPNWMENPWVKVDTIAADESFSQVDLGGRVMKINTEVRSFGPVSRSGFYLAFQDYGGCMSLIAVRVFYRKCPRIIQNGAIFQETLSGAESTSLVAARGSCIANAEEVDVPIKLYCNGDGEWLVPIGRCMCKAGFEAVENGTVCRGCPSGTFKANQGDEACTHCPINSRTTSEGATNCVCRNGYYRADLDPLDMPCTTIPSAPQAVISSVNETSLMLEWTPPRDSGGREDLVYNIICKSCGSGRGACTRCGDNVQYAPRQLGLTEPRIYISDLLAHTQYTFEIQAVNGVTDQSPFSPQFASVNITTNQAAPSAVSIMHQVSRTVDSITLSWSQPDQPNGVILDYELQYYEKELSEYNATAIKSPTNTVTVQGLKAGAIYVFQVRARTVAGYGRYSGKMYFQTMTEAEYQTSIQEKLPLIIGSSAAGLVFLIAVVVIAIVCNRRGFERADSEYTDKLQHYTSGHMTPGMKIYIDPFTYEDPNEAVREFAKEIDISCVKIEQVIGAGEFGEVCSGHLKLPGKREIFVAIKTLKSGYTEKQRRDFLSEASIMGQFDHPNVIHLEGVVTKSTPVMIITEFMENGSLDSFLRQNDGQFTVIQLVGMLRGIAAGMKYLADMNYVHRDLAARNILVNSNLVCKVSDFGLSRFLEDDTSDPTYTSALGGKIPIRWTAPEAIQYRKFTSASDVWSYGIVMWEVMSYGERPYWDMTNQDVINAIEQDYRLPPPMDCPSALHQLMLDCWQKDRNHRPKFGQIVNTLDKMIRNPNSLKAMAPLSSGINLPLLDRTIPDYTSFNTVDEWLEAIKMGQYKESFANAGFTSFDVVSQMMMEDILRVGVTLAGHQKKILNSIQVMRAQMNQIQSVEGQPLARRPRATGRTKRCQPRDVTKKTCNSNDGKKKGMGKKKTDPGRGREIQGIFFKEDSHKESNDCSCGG
Description: […]. A further dose-dependent assay was conducted to validate the selectivity of compound 4c over the EphB isoforms. […]. Accordingly, it could be considered as a promising selective inhibitor for EphB3 isoform.
as §1

ERBB2/HER2 = target: T4, ERBB2/HER2 (Homo sapiens, UniProt P04626); assay: Kinase panel assay, ERBB2/HER2; assay type: biochemical; settings: ERBB2/HER2, 10 µM; read-out: Average % Enzyme Inhibition (Relative to DMSO Controls) at 10 µM
T4 construct: purchased Reaction Biology Co. (Kinase HotSpot service)
T4 sequence (P04626 23-1255): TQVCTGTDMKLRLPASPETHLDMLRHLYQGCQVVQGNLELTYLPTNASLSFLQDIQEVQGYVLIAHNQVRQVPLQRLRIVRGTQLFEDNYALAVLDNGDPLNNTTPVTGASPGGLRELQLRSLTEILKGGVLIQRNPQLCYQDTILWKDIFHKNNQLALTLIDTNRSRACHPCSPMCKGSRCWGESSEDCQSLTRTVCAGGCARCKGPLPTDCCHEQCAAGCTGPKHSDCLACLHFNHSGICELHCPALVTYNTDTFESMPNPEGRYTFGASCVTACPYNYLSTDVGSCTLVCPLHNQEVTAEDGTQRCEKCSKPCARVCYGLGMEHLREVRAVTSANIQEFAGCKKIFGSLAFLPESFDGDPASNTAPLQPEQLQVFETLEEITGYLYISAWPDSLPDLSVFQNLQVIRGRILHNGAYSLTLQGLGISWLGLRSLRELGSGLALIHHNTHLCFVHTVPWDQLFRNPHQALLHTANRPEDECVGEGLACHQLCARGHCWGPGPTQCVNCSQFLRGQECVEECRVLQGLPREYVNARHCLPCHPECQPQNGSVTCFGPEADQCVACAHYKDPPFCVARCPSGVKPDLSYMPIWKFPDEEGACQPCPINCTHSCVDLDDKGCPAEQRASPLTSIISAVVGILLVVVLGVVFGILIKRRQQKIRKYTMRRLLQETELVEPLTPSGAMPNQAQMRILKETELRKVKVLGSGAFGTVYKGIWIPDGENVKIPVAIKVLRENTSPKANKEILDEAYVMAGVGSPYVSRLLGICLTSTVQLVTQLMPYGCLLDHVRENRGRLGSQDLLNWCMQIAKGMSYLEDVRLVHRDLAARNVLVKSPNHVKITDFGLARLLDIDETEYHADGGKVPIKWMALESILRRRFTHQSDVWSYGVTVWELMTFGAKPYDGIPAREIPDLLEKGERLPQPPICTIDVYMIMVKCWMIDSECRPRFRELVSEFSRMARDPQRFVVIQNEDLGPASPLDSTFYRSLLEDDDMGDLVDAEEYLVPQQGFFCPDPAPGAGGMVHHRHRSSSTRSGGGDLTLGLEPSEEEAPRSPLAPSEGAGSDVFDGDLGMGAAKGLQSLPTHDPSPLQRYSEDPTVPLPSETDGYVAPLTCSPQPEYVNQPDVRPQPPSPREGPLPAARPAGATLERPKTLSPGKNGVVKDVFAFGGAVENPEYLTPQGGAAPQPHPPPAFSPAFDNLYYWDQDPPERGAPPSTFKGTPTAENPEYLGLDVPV
Description: as §1

KDR/VEGFR2 = target: T5, KDR/VEGFR2 (Homo sapiens, UniProt P35968); assay: Kinase panel assay, KDR/VEGFR2; assay type: biochemical; settings: KDR/VEGFR2, 10 µM; read-out: Average % Enzyme Inhibition (Relative to DMSO Controls) at 10 µM
T5 construct: purchased Reaction Biology Co. (Kinase HotSpot service)
T5 sequence (P35968 20-1356): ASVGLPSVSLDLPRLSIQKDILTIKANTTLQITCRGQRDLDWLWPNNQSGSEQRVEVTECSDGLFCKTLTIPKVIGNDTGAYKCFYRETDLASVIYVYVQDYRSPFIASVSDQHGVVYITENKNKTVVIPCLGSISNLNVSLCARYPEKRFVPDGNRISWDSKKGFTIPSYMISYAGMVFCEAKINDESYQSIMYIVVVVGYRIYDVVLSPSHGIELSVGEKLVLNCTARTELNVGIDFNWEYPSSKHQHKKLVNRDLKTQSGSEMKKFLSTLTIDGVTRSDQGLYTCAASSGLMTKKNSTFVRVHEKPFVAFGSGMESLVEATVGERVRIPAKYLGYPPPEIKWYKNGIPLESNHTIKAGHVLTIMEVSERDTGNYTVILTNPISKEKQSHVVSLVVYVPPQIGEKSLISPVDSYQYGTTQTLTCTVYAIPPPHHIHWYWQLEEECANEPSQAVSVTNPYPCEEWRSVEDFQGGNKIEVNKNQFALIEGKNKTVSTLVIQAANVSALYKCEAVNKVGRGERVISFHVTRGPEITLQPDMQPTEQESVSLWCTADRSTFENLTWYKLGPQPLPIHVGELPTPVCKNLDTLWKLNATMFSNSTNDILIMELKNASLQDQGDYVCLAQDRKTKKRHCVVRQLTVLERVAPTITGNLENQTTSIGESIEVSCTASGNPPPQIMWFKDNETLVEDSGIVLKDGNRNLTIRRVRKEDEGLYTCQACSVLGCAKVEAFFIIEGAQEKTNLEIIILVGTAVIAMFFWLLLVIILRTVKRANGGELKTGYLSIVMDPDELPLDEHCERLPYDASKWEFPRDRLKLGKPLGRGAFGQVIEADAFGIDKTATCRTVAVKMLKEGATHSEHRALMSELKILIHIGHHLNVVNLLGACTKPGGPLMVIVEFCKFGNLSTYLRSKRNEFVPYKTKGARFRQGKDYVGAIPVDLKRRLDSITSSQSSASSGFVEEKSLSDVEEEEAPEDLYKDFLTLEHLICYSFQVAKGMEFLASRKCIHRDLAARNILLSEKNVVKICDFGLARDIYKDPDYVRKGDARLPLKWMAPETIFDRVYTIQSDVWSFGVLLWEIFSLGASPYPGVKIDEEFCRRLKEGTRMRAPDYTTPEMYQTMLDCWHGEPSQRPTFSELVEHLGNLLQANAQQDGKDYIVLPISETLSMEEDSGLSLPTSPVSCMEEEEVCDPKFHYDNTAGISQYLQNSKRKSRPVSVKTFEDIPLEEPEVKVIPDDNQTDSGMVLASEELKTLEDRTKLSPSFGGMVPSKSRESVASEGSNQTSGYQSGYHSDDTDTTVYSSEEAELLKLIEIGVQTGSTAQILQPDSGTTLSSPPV
Description: as §1

inhibition at 10 µM (EGFR kinase; EGFR kinase, 10 µM compound, 10 µM ATP as printed, read-out: Average % Enzyme Inhibition (Relative to DMSO Controls) at 10 µM): 46.8 ± 0.54% | IC50 (EGFR kinase; EGFR kinase, dose dependent assay, read-out: IC50): 8.04 µM | IC50 (EGFR kinase; EGFR, read-out: EC50 of the curve fit printed in Figure 6 (IC50 per legend)): 8.04 µM | inhibition at 10 µM (Aurora A): 67.9 ± 4.93% | inhibition at 10 µM (EphB2; EphB2, 10 µM, read-out: Average % Enzyme Inhibition (Relative to DMSO Controls) at 10 µM): 76.32 ± 0.61% | IC50 (EphB2; EphB2, dose-dependent assay): 3.95 µM | inhibition at 10 µM (ERBB2/HER2): 67.8 ± 0.99% | inhibition at 10 µM (KDR/VEGFR2): 47.8% | melting point: 313.2 to 315.1 °C
Compound: NS(=O)(=O)c1ccc(Nc2ncnc3ccc(-c4cccc(O)c4)cc23)cc1 [Compound 4c, 4-((6-(3-Hydroxyphenyl)quinazolin-4-yl)amino)benzenesulfonamide]
